The values below come from patent US20240293405A1, “(1H-PYRROLO[2,3-B]PYRIDIN-1-YL)PYRIMIDIN-2-YL-AMINO-PHENYL-ACRYLAMIDE INHIBITORS OF EGFR FOR USE IN THE TREATMENT OF BRAIN TUMORS” (Dana-Farber Cancer Institute, Inc., priority 2021, published 2024).

Data set [1] concerns orthotopic U251-EGFRvIII tumors. Briefly: Orthotopic U251-EGFRvIII xenograft in mice. The format is in vivo, mouse. How it is done: Gefitinib and erlotinib were purchased from Selleck Chemicals. Lapatinib was purchased from MedChemexpress. […] Compound 1 was synthesized by Pharmaron (Wang et al., bioRxiv, 2020.2003.2009.984500). For in vitro studies, compounds were dissolved in DMSO. For in vivo studies, Compound 1 was dissolved in 10% NMP/90% PEG300 and administered by oral gavage at 37.5 mg/kg or 75 mg/kg daily.
(§1) Cells (100,000 cells resuspended in 1 μl PBS) were intracranially injected into the right striatum (0 mm anterior, 2 mm lateral, and 2.5 mm ventral to bregma) of 8-10 week-old ICR-SCID mice. Animals were monitored daily for development of neurological defects.
Cells were transduced with lentiviral luciferase (HIV-Luc-zsGreen, addgene #39196). Bioluminescence signals from luciferase-expressing cells in live mice were recorded 10 minutes after intraperitoneal injection of D-luciferin (80 mg/kg) (Gold Biotechnology) with IVIS Lumina III Imaging System (PerkinElmer). The signals were analyzed with Living Image Software (PerkinElmer).
To evaluate the in vivo activity of Compound 1 in GBM with mutant EGFR, U251-EGFRvIII GBM cells expressing luciferase was generated to facilitate monitoring drug response in vivo by bioluminescence-imaging analysis. […]

Another data set concerns CPEvIII GBM. Briefly: Intracranial orthotopic CPEvIII allograft in mice. The format is in vivo, mouse. The method, then:
as §1
Neural stem cells (NSCs) from E14.5 embryonic mice (Cdkn2a-null; Ptenf/f) striata were isolated and cultured as previously described (Rietze, R. L., and Reynolds, B. A. (2006). Methods in enzymology 419, 3-23). NSCs were infected twice with adenovirus expressing Cre recombinase (AdCre; MOI50) (University of Iowa) to knock out floxed Pten. Cells were then transduced with retrovirus expressing EGFRvIII (pBabe-puro-EGFRvIII) (from Dr. Charles Stiles, DFCI) and selected with 1 μg/ml puromycin. The resulting cells (Cdkn2anull; Ptennull; EGFRvIII, denominated CPEvIII) can form a glioma after grafted into the mouse brain. Tumors were then isolated and mechanically dissociated for expansion in vitro and in vivo.
In GBM, EGFR mutations frequently coexist with CDKN2A deletion and PTEN deficiency (Brennan, C. W., et al. (2013). Cell 155, 462-477; Cancer Genome Atlas Research, N. (2008). Nature 455, 1061-1068). A syngeneic genetically engineered mouse (GEM) model of GBM driven by Cdkn2a and Pten double deletion concomitant with EGFRvIII expression (termed CPEvIII) has been generated. […]

The next data set has as its target EGFR(E746-A750del) (Homo sapiens, UniProt P00533, DEL746-750). Briefly: Kinase binding constant (Kd). An excerpt: (§2) EGFR amplifications and/or mutations are common in GBM, estimated to occur in over 50% of patients.
The target of the next data set is EGFR(L747-T751del,Sins) (Homo sapiens, UniProt P00533, DELINS747-751S). The data set is described as follows: Kinase binding constant (Kd).
EGFR(L747-T751del,Sins), sequence (P00533 with tags, fused parts or gaps DELINS747-751S): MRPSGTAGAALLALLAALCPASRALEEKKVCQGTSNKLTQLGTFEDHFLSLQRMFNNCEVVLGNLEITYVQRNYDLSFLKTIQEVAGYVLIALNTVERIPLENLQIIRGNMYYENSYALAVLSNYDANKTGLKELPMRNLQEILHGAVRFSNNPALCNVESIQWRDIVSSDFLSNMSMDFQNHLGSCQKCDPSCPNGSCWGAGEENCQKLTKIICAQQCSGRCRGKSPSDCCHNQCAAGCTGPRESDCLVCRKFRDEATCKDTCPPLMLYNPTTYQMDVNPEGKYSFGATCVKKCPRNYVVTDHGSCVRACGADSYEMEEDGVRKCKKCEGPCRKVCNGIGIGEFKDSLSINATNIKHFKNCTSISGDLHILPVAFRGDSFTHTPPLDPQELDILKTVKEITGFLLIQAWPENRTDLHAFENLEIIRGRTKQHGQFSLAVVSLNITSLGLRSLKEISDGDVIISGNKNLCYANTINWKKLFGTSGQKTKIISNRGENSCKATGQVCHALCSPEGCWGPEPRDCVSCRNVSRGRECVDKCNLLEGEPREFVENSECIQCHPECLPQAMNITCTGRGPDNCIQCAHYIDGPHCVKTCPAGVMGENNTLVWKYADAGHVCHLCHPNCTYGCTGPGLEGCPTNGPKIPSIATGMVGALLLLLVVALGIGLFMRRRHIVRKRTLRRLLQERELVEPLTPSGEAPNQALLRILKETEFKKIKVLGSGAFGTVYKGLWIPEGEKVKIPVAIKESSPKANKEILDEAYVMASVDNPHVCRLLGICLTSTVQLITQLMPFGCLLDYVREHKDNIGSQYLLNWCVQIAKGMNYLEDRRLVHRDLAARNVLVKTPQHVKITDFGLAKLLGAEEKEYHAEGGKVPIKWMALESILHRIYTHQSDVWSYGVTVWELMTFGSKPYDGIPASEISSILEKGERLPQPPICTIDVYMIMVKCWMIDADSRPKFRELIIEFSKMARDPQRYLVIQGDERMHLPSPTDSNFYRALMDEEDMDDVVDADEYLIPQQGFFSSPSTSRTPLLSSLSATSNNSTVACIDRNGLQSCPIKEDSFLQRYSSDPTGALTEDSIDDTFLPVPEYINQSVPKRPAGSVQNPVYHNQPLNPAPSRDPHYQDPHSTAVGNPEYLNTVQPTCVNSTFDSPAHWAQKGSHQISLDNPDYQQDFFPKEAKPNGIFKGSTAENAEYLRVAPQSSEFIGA
Excerpt: as §2

Data set [2] can be described thus: H1975 SQ lung tumor xenograft in NOD.SCID mice. The format is in vivo. As to conditions: NOD.SCID, mouse, plasma; H1975 model, 4 hours post-dose, oral; read-out: plasma concentration at which anti-tumor activity was noted. How it is done:
(§3) Compound 1 was also evaluated in xenograft models of lung tumor cell lines harboring EGFR single and double mutations in the mouse.

In data set [3] the test system is H1975 cells: EGFR L858R-T790M. Briefly: H1975 SQ lung tumor xenograft in NOD.SCID mice. The format is in vivo. As to conditions: H1975 lung tumor implants, oral. The method, then: as §3
Data set [4] deals with broad human receptor profile. Briefly: Receptor selectivity screen. Particulars: 10 μM free base. The data set is classed as binding. The method, then: Compound 1 and/or Compound 2 (active/major metabolite) were evaluated for off-target activity in a large panel of receptors and ion channels, including a human ether-i-go-go-related gene (hERG) assay. Compound 1 was assessed comprehensively in Good Laboratory Practice (GLP) safety pharmacology studies, including studies of cardiovascular, respiratory and central nervous system function.

The next data set addresses T1, P-gp (Homo sapiens, UniProt P08183).
T1 construct: expressed in transfected cells; host or cells: MDCKII-MDR1 cells
The data set is described as follows: P-glycoprotein inhibition (digoxin transport). The format is in vitro ADME. The text has this:
Further understanding of DDI risk will await definition of Phase 2 doses and exposures.

The subject of a further data set is CYP3A4/3A5. Briefly: CYP phenotyping, human liver microsomes. The data set is classed as in vitro ADME. The text has this: Metabolism, inhibition and induction were not observed with other CYPs. Potential DDI interactions exist with drugs that are inhibitors of CYP3A4-T or those metabolized by CYP3A4/3A5; these DDI risks will be better defined once there are human pharmacokinetics (PK) data.

Data set [5] can be described thus: Oral dog dose-range toxicity study. The format is in vivo. The method, then: In the dog dose-range study, Compound 1 was given to male and female beagle dogs orally by gavage either once (30, 100, 600, 1000 mg/kg) or once daily for 14 days (30, 100, 300 mg/kg/day).
The HNSTD was estimated to be 100 mg/kg/day in this study.

The test system of data set [6] is NCI-H1975 cells (EGFR L858R/T790M mutation). The data set is described as follows: Cell viability assay, NCI-H1975 (CellTiter-Glo). The data set is classed as cell-based. Particulars: Homo sapiens; NCI-H1975, 72 hours; read-out: IC50, cell viability. The text has this:
CellTier-Glo (Promega) assay kit (https://www.promega.com/resources/protocols/technical-bulletins/0/celltiter-glo-luminescentcell-viability-assay-protocol/) was used here.

The test system of data set [7] is PC9GR4 cells (Ex19del/T790M). As to conditions: PC9GR4 cell line; Wang 2020; read-out: IC50, growth inhibition; cited from earlier work.

Each structure is given as a SMILES string. “And” between values parts separate entries of the source, which are not always exact repeats. Equal entries are not always repeated. “Also recorded” adds a separate entry of the source.

T1 sequence (P08183 whole entry): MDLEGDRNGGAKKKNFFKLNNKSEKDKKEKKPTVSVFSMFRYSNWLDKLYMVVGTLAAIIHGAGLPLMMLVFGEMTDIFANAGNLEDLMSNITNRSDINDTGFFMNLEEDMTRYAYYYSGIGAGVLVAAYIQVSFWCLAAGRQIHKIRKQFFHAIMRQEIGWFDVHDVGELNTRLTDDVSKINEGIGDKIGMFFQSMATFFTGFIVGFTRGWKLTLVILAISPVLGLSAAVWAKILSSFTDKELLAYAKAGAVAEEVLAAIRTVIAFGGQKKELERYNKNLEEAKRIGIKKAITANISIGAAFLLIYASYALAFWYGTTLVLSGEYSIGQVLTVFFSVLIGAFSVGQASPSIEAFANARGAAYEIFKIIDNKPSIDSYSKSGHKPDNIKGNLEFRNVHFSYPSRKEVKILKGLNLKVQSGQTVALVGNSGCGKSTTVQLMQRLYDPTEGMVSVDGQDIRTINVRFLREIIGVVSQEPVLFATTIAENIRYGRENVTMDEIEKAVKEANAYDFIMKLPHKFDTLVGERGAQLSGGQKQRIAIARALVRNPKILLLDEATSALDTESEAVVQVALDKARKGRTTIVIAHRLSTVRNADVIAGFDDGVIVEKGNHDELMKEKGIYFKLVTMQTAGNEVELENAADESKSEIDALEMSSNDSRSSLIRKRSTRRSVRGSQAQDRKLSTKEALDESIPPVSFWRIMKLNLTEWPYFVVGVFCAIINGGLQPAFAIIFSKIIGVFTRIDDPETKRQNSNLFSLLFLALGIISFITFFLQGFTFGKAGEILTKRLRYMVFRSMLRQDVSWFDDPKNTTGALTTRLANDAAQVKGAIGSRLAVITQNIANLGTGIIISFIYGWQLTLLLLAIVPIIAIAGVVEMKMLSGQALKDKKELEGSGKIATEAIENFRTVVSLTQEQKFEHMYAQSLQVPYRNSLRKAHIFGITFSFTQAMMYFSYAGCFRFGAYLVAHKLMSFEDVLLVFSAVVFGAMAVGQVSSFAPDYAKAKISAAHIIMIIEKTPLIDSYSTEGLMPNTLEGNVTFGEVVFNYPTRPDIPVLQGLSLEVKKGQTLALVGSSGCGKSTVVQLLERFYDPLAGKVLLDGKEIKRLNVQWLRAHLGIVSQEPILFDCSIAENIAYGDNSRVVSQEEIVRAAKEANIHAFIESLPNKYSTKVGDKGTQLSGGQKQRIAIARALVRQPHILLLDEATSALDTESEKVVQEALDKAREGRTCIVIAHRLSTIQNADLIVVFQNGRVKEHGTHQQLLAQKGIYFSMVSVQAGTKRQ
EGFR(E746-A750del), sequence (P00533 with tags, fused parts or gaps DEL746-750): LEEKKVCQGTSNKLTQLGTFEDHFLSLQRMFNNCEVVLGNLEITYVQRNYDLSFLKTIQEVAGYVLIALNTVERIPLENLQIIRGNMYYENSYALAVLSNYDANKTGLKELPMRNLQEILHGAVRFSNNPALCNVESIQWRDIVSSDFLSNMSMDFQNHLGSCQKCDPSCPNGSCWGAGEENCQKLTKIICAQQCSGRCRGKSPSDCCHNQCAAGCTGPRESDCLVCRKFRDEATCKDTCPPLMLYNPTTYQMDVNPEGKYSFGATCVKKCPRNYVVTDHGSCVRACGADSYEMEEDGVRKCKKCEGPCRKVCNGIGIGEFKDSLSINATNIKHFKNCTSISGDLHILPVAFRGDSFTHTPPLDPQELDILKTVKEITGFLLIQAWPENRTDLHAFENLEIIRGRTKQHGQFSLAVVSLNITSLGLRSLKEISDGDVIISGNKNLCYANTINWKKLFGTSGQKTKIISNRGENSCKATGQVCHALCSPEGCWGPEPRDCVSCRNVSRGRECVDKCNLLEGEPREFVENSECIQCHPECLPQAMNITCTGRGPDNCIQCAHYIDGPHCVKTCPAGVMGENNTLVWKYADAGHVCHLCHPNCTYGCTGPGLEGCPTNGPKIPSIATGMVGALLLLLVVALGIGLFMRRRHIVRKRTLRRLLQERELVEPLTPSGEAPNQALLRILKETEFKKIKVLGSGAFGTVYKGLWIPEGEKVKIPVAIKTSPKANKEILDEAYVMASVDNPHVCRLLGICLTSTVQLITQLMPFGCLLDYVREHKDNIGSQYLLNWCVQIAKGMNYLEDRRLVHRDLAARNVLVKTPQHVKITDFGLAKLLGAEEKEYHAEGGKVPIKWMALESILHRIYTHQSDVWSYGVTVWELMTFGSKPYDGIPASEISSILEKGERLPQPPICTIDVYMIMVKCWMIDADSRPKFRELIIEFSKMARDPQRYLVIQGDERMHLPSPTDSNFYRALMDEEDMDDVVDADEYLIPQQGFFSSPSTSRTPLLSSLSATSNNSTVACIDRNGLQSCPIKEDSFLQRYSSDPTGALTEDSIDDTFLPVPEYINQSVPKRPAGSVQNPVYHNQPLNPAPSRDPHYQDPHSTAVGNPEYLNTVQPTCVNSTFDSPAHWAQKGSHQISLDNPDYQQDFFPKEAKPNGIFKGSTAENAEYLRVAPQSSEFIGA

Broadly, the Kd is the constant that tells how readily two partners part at equilibrium. For orientation: IC50 means the concentration that gives 50% inhibition. As for `C=CC(=O)Nc1cc(Nc2nccc(-n3ccc4cccnc43)n2)c(OC)cc1N(C)CCN(C)C` [Compound 1, N-(5-((4-(1H-pyrrolo[2,3-b]pyridin-1-yl)pyrimidin-2-yl)amino)-2-((2-(dimethylamino)ethyl)(methyl)amino)-4-methoxyphenyl)acrylamide], the “body weight during treatment” value is “stable body weight; also recorded: no significant body weight loss” in data set [1] (37.5 and 75 mg/kg PO QD); “no significant loss of body weight” in the data set with CPEvIII GBM (75 mg/kg QD). Besides, the “luminescence signals of tumors” value in data set [1] (37.5 and 75 mg/kg, dose-dependent) is recorded as “reduced the luminescence signals”. Besides, the “phosphorylation levels of EGFRvIII in tumors (IHC)” value with CPEvIII GBM (tumors at end point, 75 mg/kg) is reported as “reduced”. Moreover, the Kd at EGFR(E746-A750del) is 0.7 nM; on EGFR(L747-T751del,Sins), 2 nM. Moreover, in data set [2], the concentration at 4 h is 800 ng/mL and 1.6 µM. Besides, the tumor response entry in [3] is “substantial tumor regression”. Moreover, in data set [4], the “off-target risk from receptor binding studies” value was “little off-target risk”. For the same molecule, the P-gp inhibition result on P-gp was “No P-gp inhibition”. Moreover, the IC50 on P-gp (read-out: IC50, P-gp mediated transport of digoxin) was more than 30000 nM; in data set [6], 34.4 nM; in data set [7], 3.66 nM. Moreover, the “primarily metabolizing CYP” value in the data set on CYP3A4/3A5 was “CYP3A4/3A5”. In data set [5] (30 to 1000 mg/kg), the “tolerability of a single oral dose” value is reported as “well tolerated”. Further, the HNSTD in data set [5] (14 days oral, estimated) is 100 mg/kg/day.
